PubChem BioAssay AID248 (DTP/NCI, 2004)
Values joined by “and” are separate entries in the source; they are usually repeats but may differ in a detail not shown here. Equal entries are not always repeated. Toxic doses and inconclusive results are not listed.

Tested on: L1210 leukemia ip in BDF1 mice, survival T/C
Test: NCI In Vivo Anticancer Drug Screen. Data for tumor model L1210 Leukemia (intraperitoneal) in B6D2F1 (BDF1) mice
Conditions: endpoint: mean survival time, higher = longer survival
Procedure, shortened: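 Tumor cells were implanted, animals were treated, and survival was followed. The result divides the treated measurement by the vehicle-control measurement.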

[1] = dose: 50.0 mg/kg/injection, schedule: Q01DX001 (ip), vehicle: saline
[2] = dose: 100.0 mg/kg/injection, schedule: Q01DX001 (ip), vehicle: saline
[3] = dose: 200.0 mg/kg/injection, schedule: Q01DX001 (ip), vehicle: saline
[4] = dose: 400.0 mg/kg/injection, schedule: Q01DX001 (ip), vehicle: saline

Question: Which results are given for C=CCOCC(O)C[As](=O)(O)c1ccc(Cl)cc1 (configuration not stated)?
Answer: T/C (dose: 1.56 mg/kg/injection, schedule: Q04DX003 (ip), vehicle: saline with Tween-80): 104 % of control; T/C (dose: 3.13 mg/kg/injection, schedule: Q04DX003 (ip), vehicle: saline with Tween-80): 104 % of control; T/C (dose: 6.25 mg/kg/injection, schedule: Q04DX003 (ip), vehicle: saline with Tween-80): 112 % of control

Question: How did the T/C (dose: 3.12 mg/kg/injection, schedule: Q04DX002 (ip), vehicle: Klucel (hydroxypropylcellulose) (HPC)) turn out when Cc1ccc2c[c]1[Hg][CH2]COS2(=O)=O was run?
Answer: 93 % of control

Question: And the T/C (dose: 6.25 mg/kg/injection, schedule: Q04DX002 (ip), vehicle: Klucel (hydroxypropylcellulose) (HPC))?
Answer: 101 % of control

Question: What about the T/C (dose: 12.5 mg/kg/injection, schedule: Q04DX002 (ip), vehicle: Klucel (hydroxypropylcellulose) (HPC)) of the same molecule?
Answer: 102 % of control and 90 % of control

Question: For CS(=O)(=O)OCCN(CCOS(C)(=O)=O)c1ccc([N+](=O)[O-])c(F)c1, which T/C [1] is on record?
Answer: 110 % of control

Question: What about the T/C [2] of the same molecule?
Answer: 112 % of control

Question: What about the T/C [3] of the same molecule?
Answer: 115 % of control

Question: And the T/C [4]?
Answer: 105 % of control

Question: What does the source list for CCOC(=O)C(=CNc1cc(N)nc(SC)n1)C(=O)OCC?
Answer: T/C (dose: 100.0 mg/kg/injection, schedule: Q04DX002 (ip), vehicle: Klucel (hydroxypropylcellulose) (HPC)): 114 % of control; T/C (dose: 200.0 mg/kg/injection, schedule: Q04DX002 (ip), vehicle: Klucel (hydroxypropylcellulose) (HPC)): 103 % of control; T/C (dose: 400.0 mg/kg/injection, schedule: Q04DX002 (ip), vehicle: Klucel (hydroxypropylcellulose) (HPC)): 100 % of control

Question: How did the T/C (dose: 100.0 mg/kg/injection, schedule: Q01DX009 (ip), vehicle: saline) turn out when Nc1ncnn1C(=S)NCc1ccccc1 was run?
Answer: 100 % of control

Question: And the T/C (dose: 100.0 mg/kg/injection, schedule: Q04DX003 (ip), vehicle: saline)?
Answer: 89 % of control

Question: What about the T/C (dose: 200.0 mg/kg/injection, schedule: Q04DX003 (ip), vehicle: saline) of the same molecule?
Answer: 90 % of control

Question: And the T/C (dose: 400.0 mg/kg/injection, schedule: Q04DX003 (ip), vehicle: saline)?
Answer: 88 % of control

Question: Which T/C (dose: 75.0 mg/kg/injection, schedule: Q01DX001 (ip), vehicle: saline) does the source give for CCC1(C2=CCCCC2)C(=O)NC(=S)NC1=O here?
Answer: 102 % of control

Question: And the T/C (dose: 150.0 mg/kg/injection, schedule: Q01DX001 (ip), vehicle: saline)?
Answer: 106 % of control

Question: And the T/C (dose: 300.0 mg/kg/injection, schedule: Q01DX001 (ip), vehicle: saline)?
Answer: 104 % of control

Question: Which results are given for C/C(=N\Sc1ccccc1)c1ccccc1O?
Answer: T/C (dose: 100.0 mg/kg/injection, schedule: Q04DX002 (ip), vehicle: other): 102 % of control; T/C (dose: 200.0 mg/kg/injection, schedule: Q04DX002 (ip), vehicle: other): 88 % of control

Question: With COc1ccc(CN2CCCN(Cc3ccc(OC)cc3OC)C2c2ccc(F)cc2)c(OC)c1 as the molecule, how does the T/C [1] read?
Answer: 94 % of control

Question: And the T/C [2]?
Answer: 89 % of control

Question: And the T/C [3]?
Answer: 94 % of control

Question: What about the T/C [4] of the same molecule?
Answer: 100 % of control

Question: For COc1cc2c(cc1OC)C1(NCC2)C(=O)Nc2c(Cl)cccc21 (configuration not stated), which T/C (dose: 30.0 mg/kg/injection, schedule: Q04DX002 (ip), vehicle: saline) is on record?
Answer: 124 % of control

Question: What about the T/C (dose: 60.0 mg/kg/injection, schedule: Q04DX002 (ip), vehicle: saline) of the same molecule?
Answer: 113 % of control

Question: And the T/C (dose: 120.0 mg/kg/injection, schedule: Q04DX002 (ip), vehicle: saline)?
Answer: 117 % of control

Question: How did the T/C [2] turn out when COc1ccc(CCN(C)C(c2ccccc2)c2ccccc2)cc1OC was run?
Answer: 100 % of control

Question: What about the T/C [3] of the same molecule?
Answer: 96 % of control

Question: What about the T/C [4] of the same molecule?
Answer: 104 % of control

Question: With c1ccc2c(CN3CCCCC3)c[nH]c2c1 as the molecule, how does the T/C (dose: 50.0 mg/kg/injection, schedule: Q01DX009 (ip), vehicle: saline with Tween-80) read?
Answer: 108 % of control

Question: What about the T/C (dose: 100.0 mg/kg/injection, schedule: Q01DX009 (ip), vehicle: saline with Tween-80) of the same molecule?
Answer: 88 % of control

Question: And the T/C (dose: 100.0 mg/kg/injection, schedule: Q04DX003 (ip), vehicle: saline with Tween-80)?
Answer: 93 % of control

Question: What about the T/C (dose: 200.0 mg/kg/injection, schedule: Q04DX003 (ip), vehicle: saline with Tween-80) of the same molecule?
Answer: 88 % of control

Question: For Cc1ccc(C(SCC(N)C(=O)O)(c2ccccc2)c2ccc(C)cc2)cc1 (configuration not stated), which T/C (dose: 6.25 mg/kg/injection, schedule: Q01DX009 (ip), vehicle: other) is on record?
Answer: 124 % of control

Question: What about the T/C (dose: 12.5 mg/kg/injection, schedule: Q01DX009 (ip), vehicle: other) of the same molecule?
Answer: 152 % of control

Question: What about the T/C (dose: 12.5 mg/kg/injection, schedule: Q01DX009 (ip), vehicle: saline) of the same molecule?
Answer: 156 % of control and 197 % of control

Question: What about the T/C (dose: 25.0 mg/kg/injection, schedule: Q01DX009 (ip), vehicle: other) of the same molecule?
Answer: 164 % of control

Question: What about the T/C (dose: 25.0 mg/kg/injection, schedule: Q01DX009 (ip), vehicle: saline) of the same molecule?
Answer: 179 % of control and 195 % of control

Question: What about the T/C (dose: 50.0 mg/kg/injection, schedule: Q01DX009 (ip), vehicle: saline) of the same molecule?
Answer: 113 % of control and 88 % of control
